Assay results as given in patent US20260028326A1, “COMPOUND BASED ON ISOINDOLINE-SUBSTITUTED GLUTARIMIDE BACKBONE AND USE THEREOF” (GLUETACS THERAPEUTICS (SHANGHAI) CO., LTD., priority 2022, published 2026).

Key:
IKZF3 protein = IKZF3 protein (Homo sapiens (Human), UniProt Q96SW2+Q9UKT9); experiment: Western-blot assay of substrate protein degradation in hPBMC, IKZF3; type: cell-based; conditions: for residual substrate protein level, IKZF3: hPBMC cells, compound 500 nM, 24 hours, Western blot
CCRF-CEM cells = experiment: Tumor cell proliferation IC50 (CCK-8), CCRF-CEM; conditions: Homo sapiens, 96 h, read-out: IC50 for inhibiting the proliferation of tumor cells, CCRF-CEM;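 note: cell viability measured with CCK-8 reagent after compound treatment, IC50 taken from plotted growth inhibition curves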
Description: (§1) The tumor cells used herein were cultured in a cell culture medium listed in table A at 37° C. in an incubator with 5% CO2.
(§2) After the cells were treated with the compounds of the present disclosure for a period of time, the cell viability detection reagent was added to the culture medium for cell viability assessment according to the instructions provided with the CCK-8 kit. […] The growth inhibition of the compounds of the present disclosure on cells was plotted by Prism Graphpad software, and the IC50 values of the compounds of the present disclosure were calculated therefrom.

GSPT1 protein = GSPT1 protein (Homo sapiens (Human), UniProt P15170+Q96SW2); experiment: Western-blot assay of substrate protein degradation in hPBMC, GSPT1; type: cell-based; conditions: for residual substrate protein level, GSPT1: hPBMC cells, compound 500 nM, 24 hours, Western blot
MM.1S cells = experiment: Tumor cell proliferation IC50 (CCK-8), MM.1S; conditions: Homo sapiens, MM1.S, 72 h, read-out: IC50 for inhibiting the proliferation of tumor cells, MM.1S;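 note: viability of cultured cells read by CCK-8 reagent after compound exposure, growth inhibition curves fitted to derive IC50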
Description: as §1, §2

[1] = biological target: human Cereblon WT GST-tagged protein (Homo sapiens (Human), UniProt Q96SW2); experiment: CRBN-binding affinity, HTRF (CEREBLON BINDING kit)
Outline: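 GST-tagged human WT Cereblon incubated with compound, then Thalidomide-Re tracer and anti-GST Eu antibody added. Displacement read by HTRF, reported as CRBN binding inhibition rate against blank control wells without protein.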

Mino cells = experiment: Tumor cell proliferation IC50 (CCK-8), Mino; conditions: Homo sapiens, 72 h, read-out: IC50 for inhibiting the proliferation of tumor cells, Mino;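 note: cell viability assessed with CCK-8 reagent after compound exposure, IC50 derived from plotted growth inhibition curves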
Description: as §1, §2

Daudi cells = experiment: Tumor cell proliferation IC50 (CCK-8), Daudi; conditions: Homo sapiens, read-out: IC50 for inhibiting the proliferation of tumor cells, Daudi;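 note: cell viability read with CCK-8 reagent after compound exposure of Daudi cells, IC50 derived from plotted growth inhibition curves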
Description: as §1, §2

IKZF1 protein = IKZF1 protein (Homo sapiens (Human), UniProt Q13422+Q96SW2); experiment: Western-blot assay of substrate protein degradation in hPBMC, IKZF1; type: cell-based; conditions: for residual substrate protein level, IKZF1: hPBMC cells, compound 500 nM, 24 hours, Western blot
[2] = hPBMC, 24 h, serially diluted 0.03-1000 nM

Sequence of human Cereblon WT GST-tagged protein (Q96SW2 whole entry): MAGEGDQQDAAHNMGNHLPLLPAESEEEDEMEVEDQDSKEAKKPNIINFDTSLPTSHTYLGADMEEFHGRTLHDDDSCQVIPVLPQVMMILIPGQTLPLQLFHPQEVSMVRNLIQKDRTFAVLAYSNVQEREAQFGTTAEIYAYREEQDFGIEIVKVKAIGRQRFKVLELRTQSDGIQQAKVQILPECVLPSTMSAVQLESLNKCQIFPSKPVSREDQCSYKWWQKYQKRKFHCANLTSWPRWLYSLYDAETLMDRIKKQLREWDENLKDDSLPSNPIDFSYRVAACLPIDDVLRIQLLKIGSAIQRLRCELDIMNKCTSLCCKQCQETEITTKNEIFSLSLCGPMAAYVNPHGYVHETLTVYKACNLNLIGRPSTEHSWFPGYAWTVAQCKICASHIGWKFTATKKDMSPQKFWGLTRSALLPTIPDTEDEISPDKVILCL
Sequence of IKZF3 protein (Q9UKT9 whole entry): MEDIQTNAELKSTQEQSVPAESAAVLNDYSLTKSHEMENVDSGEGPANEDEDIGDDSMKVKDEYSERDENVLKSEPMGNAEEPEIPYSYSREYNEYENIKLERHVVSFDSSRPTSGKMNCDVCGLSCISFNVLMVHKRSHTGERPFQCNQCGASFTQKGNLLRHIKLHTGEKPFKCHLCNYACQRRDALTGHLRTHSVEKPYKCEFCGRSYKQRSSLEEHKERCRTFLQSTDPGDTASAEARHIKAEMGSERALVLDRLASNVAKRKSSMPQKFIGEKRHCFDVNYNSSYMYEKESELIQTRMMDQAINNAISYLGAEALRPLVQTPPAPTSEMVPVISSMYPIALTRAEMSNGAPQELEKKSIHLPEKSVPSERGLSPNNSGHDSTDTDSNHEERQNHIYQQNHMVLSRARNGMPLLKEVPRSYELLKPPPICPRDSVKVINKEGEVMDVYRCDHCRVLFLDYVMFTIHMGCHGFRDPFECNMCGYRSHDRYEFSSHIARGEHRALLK
Sequence of IKZF3 protein (Q96SW2 whole entry): as the sequence (Q96SW2 whole entry) above
Sequence of IKZF3 protein (Q16531 whole entry partner): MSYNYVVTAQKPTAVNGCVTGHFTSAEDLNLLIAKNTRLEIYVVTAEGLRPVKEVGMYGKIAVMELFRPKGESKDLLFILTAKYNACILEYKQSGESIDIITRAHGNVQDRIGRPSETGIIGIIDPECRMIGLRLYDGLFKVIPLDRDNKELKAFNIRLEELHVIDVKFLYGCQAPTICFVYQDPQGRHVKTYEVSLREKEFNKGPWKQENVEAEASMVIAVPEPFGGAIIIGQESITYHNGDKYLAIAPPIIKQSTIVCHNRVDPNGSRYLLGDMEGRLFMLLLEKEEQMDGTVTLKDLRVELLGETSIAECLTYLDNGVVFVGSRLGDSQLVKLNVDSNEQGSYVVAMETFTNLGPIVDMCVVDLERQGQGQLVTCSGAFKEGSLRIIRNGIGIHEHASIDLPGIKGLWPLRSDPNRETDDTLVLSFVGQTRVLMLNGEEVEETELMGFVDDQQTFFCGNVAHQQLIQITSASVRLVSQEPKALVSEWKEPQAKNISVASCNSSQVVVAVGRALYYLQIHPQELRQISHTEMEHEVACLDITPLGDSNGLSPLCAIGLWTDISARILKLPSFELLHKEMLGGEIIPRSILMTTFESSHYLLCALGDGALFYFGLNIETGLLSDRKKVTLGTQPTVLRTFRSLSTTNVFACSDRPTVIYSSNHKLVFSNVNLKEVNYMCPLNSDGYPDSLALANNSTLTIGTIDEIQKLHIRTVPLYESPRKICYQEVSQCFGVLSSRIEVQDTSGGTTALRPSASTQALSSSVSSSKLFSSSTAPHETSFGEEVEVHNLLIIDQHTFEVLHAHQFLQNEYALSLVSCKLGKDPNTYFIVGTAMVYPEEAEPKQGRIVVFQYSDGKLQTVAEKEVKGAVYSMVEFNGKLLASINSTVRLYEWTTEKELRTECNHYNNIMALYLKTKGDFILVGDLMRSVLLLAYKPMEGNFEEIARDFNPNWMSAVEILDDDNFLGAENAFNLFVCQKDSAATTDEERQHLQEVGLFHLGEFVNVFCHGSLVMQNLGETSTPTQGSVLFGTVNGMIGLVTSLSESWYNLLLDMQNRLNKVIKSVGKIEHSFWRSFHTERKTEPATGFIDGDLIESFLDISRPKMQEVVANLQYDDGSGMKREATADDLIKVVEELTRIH
Sequence of IKZF1 protein (Q13422 whole entry): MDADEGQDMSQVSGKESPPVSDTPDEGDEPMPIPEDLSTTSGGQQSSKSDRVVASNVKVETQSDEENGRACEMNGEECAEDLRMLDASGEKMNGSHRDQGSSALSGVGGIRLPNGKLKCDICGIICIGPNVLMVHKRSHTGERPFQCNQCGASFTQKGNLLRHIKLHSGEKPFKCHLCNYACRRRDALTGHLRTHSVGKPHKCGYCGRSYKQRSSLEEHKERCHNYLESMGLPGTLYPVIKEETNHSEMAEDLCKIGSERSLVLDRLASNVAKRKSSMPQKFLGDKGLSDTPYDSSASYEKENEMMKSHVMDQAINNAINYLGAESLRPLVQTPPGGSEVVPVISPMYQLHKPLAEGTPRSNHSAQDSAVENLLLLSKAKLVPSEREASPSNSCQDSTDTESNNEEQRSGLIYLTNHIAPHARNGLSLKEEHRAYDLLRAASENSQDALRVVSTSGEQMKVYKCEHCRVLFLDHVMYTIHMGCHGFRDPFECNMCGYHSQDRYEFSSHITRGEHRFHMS
Sequence of IKZF1 protein (Q96SW2 whole entry): as the sequence (Q96SW2 whole entry) above
Sequence of IKZF1 protein (Q16531 whole entry partner): as the sequence (Q16531 whole entry partner) above
Sequence of GSPT1 protein (P15170 whole entry): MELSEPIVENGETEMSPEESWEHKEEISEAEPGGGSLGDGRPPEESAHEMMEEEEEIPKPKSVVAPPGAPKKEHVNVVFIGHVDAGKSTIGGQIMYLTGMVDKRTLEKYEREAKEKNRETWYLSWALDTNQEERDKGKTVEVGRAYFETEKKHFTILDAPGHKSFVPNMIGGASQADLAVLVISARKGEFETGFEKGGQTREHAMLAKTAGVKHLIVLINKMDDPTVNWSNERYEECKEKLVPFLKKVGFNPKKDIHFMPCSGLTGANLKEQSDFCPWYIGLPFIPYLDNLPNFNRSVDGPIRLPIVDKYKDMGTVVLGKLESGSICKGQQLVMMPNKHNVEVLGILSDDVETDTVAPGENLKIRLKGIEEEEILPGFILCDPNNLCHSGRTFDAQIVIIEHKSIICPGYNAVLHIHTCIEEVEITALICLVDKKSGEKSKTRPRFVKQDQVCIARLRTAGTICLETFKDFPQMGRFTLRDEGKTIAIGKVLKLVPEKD
Sequence of GSPT1 protein (Q96SW2 whole entry): as the sequence (Q96SW2 whole entry) above
Sequence of GSPT1 protein (Q16531 whole entry partner): as the sequence (Q16531 whole entry partner) above

| IC50 (CCRF-CEM cells) [nM] | IC50 (MM.1S cells) [nM] | IC50 [1] [nM] | IC50 (Mino cells) [nM] | IC50 (Daudi cells) [nM] | concentration at which significant degradation effects on IKZF3 protein are exhibited (FIG. 1) (IKZF3 protein; [2]) [nM] | concentration at which significant degradation effects on GSPT1 protein are exhibited (FIG. 1) (GSPT1 protein; [2]) [nM] | concentration at which significant degradation effects on IKZF1 protein are exhibited (FIG. 1) (IKZF1 protein; [2]) [nM] | SMILES | residual substrate protein level, IKZF3 (IKZF3 protein) | residual substrate protein level, GSPT1 (GSPT1 protein) | residual substrate protein level, IKZF1 (IKZF1 protein) |
| --- | --- | --- | --- | --- | --- | --- | --- | --- | --- | --- | --- |
| 100 to 500 | 10 to 50 | 660 | 10 to 50 | 100 to 500 | – | – | – | O=C1CCC(N2Cc3cc(NC4CN(Cc5ccccc5-c5ccc(Cl)cc5)C4)ccc3C2=O)C(=O)N1 (centres unmarked) [GT-05382, 3-(5-((1-((4′-chloro-[1,1′-biphenyl]-2-yl)methyl)azetidin-3-yl)amino)-1-oxoisoindolin-2-yl)piperidine-2,6-dione] | A (A represents a residual substrate protein level of <50%) | A (A represents a residual substrate protein level of <50%) | A (A represents a residual substrate protein level of <50%) |
| < 5 | < 5 | 410 | < 5 | 5 to 10 | – | – | – | O=C1CCC(N2Cc3cc(CN4CCN(Cc5ccccc5-c5cccs5)CC4)ccc3C2=O)C(=O)N1 (centres unmarked) [GT-05519, 3-(1-oxo-5-((4-(2-(thiophen-2-yl)benzyl)piperazin-1-yl)methyl)isoindolin-2-yl)piperidine-2,6-dione] | A (A represents a residual substrate protein level of <50%) | A (A represents a residual substrate protein level of <50%) | A (A represents a residual substrate protein level of <50%) |
| 500 to 1000 | 50 to 100 | 680 | 10 to 50 | 500 to 1000 | < 3 | < 3 | < 3 | O=C1CCC(N2Cc3cc(CN4CCN(Cc5ccc(-c6ccc(Cl)cc6)cc5)CC4)ccc3C2=O)C(=O)N1 (centres unmarked) [GT-05598, 3-(5-((4-((4′-chloro-[1,1′-biphenyl]-4-yl)methyl)piperazin-1-yl)methyl)-1-oxoisoindolin-2-yl)piperidine-2,6-dione] | A (A represents a residual substrate protein level of <50%) | B (B represents a residual substrate protein level of >50%) | A (A represents a residual substrate protein level of <50%) |
| < 5 | < 5 | 560 | < 5 | 5 to 10 | – | – | – | O=C1CCC(N2Cc3c(ccc(CN4CCN(Cc5ccccc5-c5ccc(F)cc5)CC4)c3F)C2=O)C(=O)N1 (centres unmarked) [GT-05602, 3-(4-fluoro-5-((4-((4′-fluoro-[1,1′-biphenyl]-2-yl)methyl)piperazin-1-yl)methyl)-1-oxoisoindolin-2-yl)piperidine-2,6-dione] | A (A represents a residual substrate protein level of <50%) | A (A represents a residual substrate protein level of <50%) | A (A represents a residual substrate protein level of <50%) |
| 2.5 | < 5 | 940 | < 5 | 5 to 10 | – | – | – | O=C1CCC(N2Cc3cc(CN4CCN(Cc5ccccc5-c5ccc(F)cc5)CC4)c(F)cc3C2=O)C(=O)N1 (centres unmarked) [GT-05603, 3-(6-fluoro-5-((4-((4′-fluoro-[1,1′-biphenyl]-2-yl)methyl)piperazin-1-yl)methyl)-1-oxoisoindolin-2-yl)piperidine-2,6-dione] | A (A represents a residual substrate protein level of <50%) | A (A represents a residual substrate protein level of <50%) | A (A represents a residual substrate protein level of <50%) |
| 10 to 50 | 10 to 50 | 940 | 50 to 100 | 100 to 500 | – | – | – | O=C1CCC(N2Cc3cc(CN4CCN(C(=O)c5ccccc5-c5ccc(Cl)cc5)CC4)c(F)cc3C2=O)C(=O)N1 (centres unmarked) [GT-05650, 3-(5-((4-(4′-chloro-[1,1′-biphenyl]-2-carbonyl)piperazin-1-yl)methyl)-6-fluoro-1-oxoisoindolin-2-yl)piperidine-2,6-dione] | A (A represents a residual substrate protein level of <50%) | A (A represents a residual substrate protein level of <50%) | A (A represents a residual substrate protein level of <50%) |
| 10 to 50 | 10 to 50 | 560 | 10 to 50 | 100 to 500 | – | – | – | CC1(C)CCC(C(=O)N2CC3(CN(Cc4ccc5c(c4)CN(C4CCC(=O)NC4=O)C5=O)C3)C2)=C(c2ccc(F)cc2)C1 (centres unmarked) [GT-05664, 3-(5-((6-(4′-fluoro-5,5-dimethyl-3,4,5,6-tetrahydro-[1,1′-biphenyl]-2-carbonyl)-2,6-diazaspiro[3.3]heptan-2-yl)methyl)-1-oxoisoindolin-2-yl)piperidine-2,6-dione] | A (A represents a residual substrate protein level of <50%) | A (A represents a residual substrate protein level of <50%) | A (A represents a residual substrate protein level of <50%) |
| < 5 | < 5 | 560 | < 5 | 5 to 10 | – | – | – | O=C1CCC(N2Cc3cc(CN4CCN(Cc5ncccc5-c5ccc(Cl)cc5)CC4)ccc3C2=O)C(=O)N1 (centres unmarked) [GT-05778, 3-(5-((4-((3-(4-chlorophenyl)pyridin-2-yl)methyl)piperazin-1-yl)methyl)-1-oxoisoindolin-2-yl)piperidine-2,6-dione] | A (A represents a residual substrate protein level of <50%) | A (A represents a residual substrate protein level of <50%) | A (A represents a residual substrate protein level of <50%) |
| 5 to 10 | 5 to 10 | 430 | 5 to 10 | 50 to 100 | – | – | – | O=C1CCC(N2Cc3cc(CN4CCN(Cc5ccccc5-c5ccco5)CC4)ccc3C2=O)C(=O)N1 (centres unmarked) [GT-05779, 3-(5-((4-(2-(furan-2-yl)benzyl)piperazin-1-yl)methyl)-1-oxoisoindolin-2-yl)piperidine-2,6-dione] | A (A represents a residual substrate protein level of <50%) | A (A represents a residual substrate protein level of <50%) | A (A represents a residual substrate protein level of <50%) |
| 5 to 10 | 5 to 10 | 660 | 5 to 10 | 50 to 100 | – | – | – | Cc1ccc(C2=C(CN3CCN(Cc4ccc5c(c4)CN(C4CCC(=O)NC4=O)C5=O)CC3)CCC(C)(C)C2)cc1 (centres unmarked) [GT-05792, 3-(1-oxo-5-((4-((4′,5,5-trimethyl-3,4,5,6-tetrahydro-[1,1′-biphenyl]-2-yl)methyl)piperazin-1-yl)methyl)isoindolin-2-yl)piperidine-2,6-dione] | – | – | – |
